# In paper PMC11758220, “Identification of a Privileged Scaffold for Inhibition of Sterol Transport Proteins through the Synthesis and Ring Distortion of Diverse, Pseudo-Natural Products” (ACS Central Science, 2025):
# Columns and labels:
# Assay type in all cases: binding
# STARD5 = molecular target: T1, STARD5 (Homo sapiens, UniProt Q9NSY2); assay: Differential scanning fluorimetry (DSF), STARD5; conditions: for Kd: apparent Kd, mean of three experiments run in technical duplicates, read-out: STARD5 Kd,app (DSF); for STARD5 (DSF) ΔTmmax: maximal thermal shift
# T1 construct: STARD5(6-213); host or cells: E. coli BL21(DE3)
# T1 sequence (Q9NSY2 6-213): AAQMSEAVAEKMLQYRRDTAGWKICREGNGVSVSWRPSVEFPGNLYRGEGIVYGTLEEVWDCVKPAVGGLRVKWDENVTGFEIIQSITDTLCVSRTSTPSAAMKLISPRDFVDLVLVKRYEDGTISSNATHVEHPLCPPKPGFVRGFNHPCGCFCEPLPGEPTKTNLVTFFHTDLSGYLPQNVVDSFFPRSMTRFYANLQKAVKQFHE
# Aster-C = molecular target: T2, Aster-C (Homo sapiens, UniProt Q8IYS0); assay: Fluorescence polarisation (FP) competition with NBD-cholesterol, Aster-C; conditions: for IC50: mean of three experiments run in technical duplicates
# T2 construct: -C(318-504); GST (PreScission-cleavable) (N, cleaved yes); made in house; host or cells: E. coli OverExpress C41
# Text: Protein expression constructs
# Human ASTER domains of Aster-A(359-547), -B(364-552) and -C(318-504) were subcloned into a pGEX-6p-2rbs vector, thus introducing the cloning artifact ‘GPLGS’.3 The pGEX-6P-1-GST-OSBP(377- […]
# a gift from James H. Hurley (University of California).4 The pHIS_2His6_Thrombin_STARD4(2-205;C75S) plasmid was a gift from Young Jun Im (Chonnam National University).5 STARD5A was a gift from Nicola Burgess-Brown (Addgene plasmid #42392; http://n2t.net/addgene:42392; […]
# Protein expression and purification […]
# vectors including an N-terminal PreScission-cleavable glutathione S-transferase (GST)-tag were expressed in Escherichia coli (E. coli) OverExpress C41 in Terrific Broth (TB) medium for 16 h at 18 °C after the induction with 0.1 mM isopropyl β-D-1-thiogalactopyranoside (IPTG). Cells were harvested at 3500 × g for 15 minutes and lysed by sonication in buffer containing 50 mM HEPES pH 7.5, 300 mM NaCl, 10 %v/v glycerol, 5 mM dithiothreitol (DTT), 0.1 %v/v Triton X-100 and protease inhibitor mix HP plus (Serva). The lysate was purified by affinity chromatography on a GSTrap FF column (Cytiva) using an ÄKTA Start (Cytiva) in buffer containing 50 mM HEPES pH 7.5, 300 mM NaCl, 10 %v/v glycerol, 5 mM DTT and 0.01 %v/v Triton X-100. The GST-tag was cleaved overnight on the column at 4 °C. The Aster sterol binding domains were further purified by size-exclusion chromatography (SEC) on a HiLoad 16/600 Superdex 75 pg (Cytiva) in buffer containing 20 mM HEPES pH 7.5, 300 mM NaCl, 10 %v/v […]
# STARD5(6-213) harboring an N-terminal His6-Tag were expressed in E. coli BL21(DE3) in Luria-Bertani Broth (LB) medium for approximately 16 h at 18 °C after induction with 0.15 mM IPTG. Cells were harvested at 3500 × g for 15 minutes and lysed by sonication in buffer containing 50 mM HEPES pH 7.5, 150 mM NaCl, 5 %v/v glycerol, 5 mM DTT, 0.1 %v/v Triton X -100 and ethylenediaminetetraacetic acid (EDTA)-free protease inhibitor cocktail (Sigma-Aldrich). The cleared lysate was purified by affinity chromatography on a Ni-NTA Superflow Cartridge (Qiagen) using an ÄKTA Start (Cytiva) in buffer containing 50 mM HEPES pH 7.5, 150 mM NaCl, 5 %v/v glycerol, 5 mM DTT. START domains were eluted by using elution buffer containing 50 mM HEPES pH 7.5, 150 mM NaCl, 5 %v/v glycerol, 5 mM DTT and 500 mM imidazole. Proteins were further purified by SEC on a HiLoad 16/600 Superdex 75 pg (Cytiva) in buffer containing 20 mM HEPES pH 7.5, 150 mM NaCl, 5 %v/v glycerol and 2 mM DTT.
# The ORP domain of human OSBP(377-807) in the pGEX-6p-1 vector with an N-terminal PreScission-cleavable GST-tag was expressed in E. coli OverExpress C41 in LB medium for 16 h at 18 °C after induction with 0.1 mM IPTG. Cells were harvested at 3500 × g for 15 minutes and lysed by sonication in buffer containing 20 mM HEPES pH 7.5, 300 mM NaCl, 10 %v/v glycerol, 5 mM DTT, 0.1 %v/v Triton X-100 and EDTA-free protease inhibitor cocktail (Sigma-Aldrich). The cleared lysate was purified by affinity chromatography on a GSTrap HF column (Cytiva) using an ÄKTA Start (Cytiva) in buffer containing 20 mM HEPES pH 7.5, 300 mM NaCl, 10 %v/v glycerol, 5 mM DTT. OSBP(377 -807) was eluted by using elution buffer containing 20 mM HEPES pH 7.5, 300 mM NaCl, 10 %v/v glycerol, 5 mM DTT and 10 mM reduced glutathione. Proteins were further purified by SEC on a HiLoad 16/600 Superdex 75 pg (Cytiva) using an ÄKTA Explorer (Cytiva) in buffer containing 20 mM HEPES pH 7.5, 150 mM NaCl, 10 %v/v glycerol and 2 mM DTT.
# The ORP domains of human ORP1(534-950) in pET24b(+) and ORP2(49-480) in the pET24b(+) vector including an N-terminal His6-Tag were expressed in E. coli BL21(DE3) in TB medium for approximately 16 h at 18 °C after induction with 0.1 mM IPTG. Cells were collected at 3500 × g for 15 minutes and lysed by sonification in buffer containing 10 mM Tris-HCl pH 8, 300 mM NaCl, 5 % glycerol, 2 mM DTT, 0.1 % Triton X-100 and EDTA-free protease inhibitor cocktail (Sigma-Aldrich). The cleared […]
# STARD1 = molecular target: T3, STARD1 (Homo sapiens, UniProt P49675); assay: Fluorescence polarisation (FP) competition with NBD-cholesterol, STARD1; conditions: single dose, Dose = 10 µM
# T3 construct: STARD1(66-284); made in house; host or cells: E. coli BL21(DE3)
# T3 sequence (P49675 66-284): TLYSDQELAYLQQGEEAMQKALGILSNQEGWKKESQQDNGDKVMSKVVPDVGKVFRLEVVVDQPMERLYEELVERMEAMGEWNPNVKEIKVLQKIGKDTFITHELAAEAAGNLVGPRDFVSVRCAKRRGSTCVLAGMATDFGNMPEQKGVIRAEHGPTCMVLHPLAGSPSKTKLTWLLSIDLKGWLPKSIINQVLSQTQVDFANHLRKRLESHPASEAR
# T2 sequence (Q8IYS0 318-504): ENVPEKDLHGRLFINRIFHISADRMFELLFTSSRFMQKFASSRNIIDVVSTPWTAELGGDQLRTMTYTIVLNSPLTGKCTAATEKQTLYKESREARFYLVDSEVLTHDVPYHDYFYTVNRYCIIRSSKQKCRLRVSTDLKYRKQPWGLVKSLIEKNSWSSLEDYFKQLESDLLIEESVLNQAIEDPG
Compound,"ΔTm at 10 µM (STARD5; single dose, Dose = 10 µM)","inhibition at 10 µM (Aster-C; single dose, Dose = 10 µM)",inhibition at 10 µM (STARD1),"STARD5 (DSF) ΔTm (STARD5; single dose, Dose = 10 µM)","Aster-C (FP) inhibition (Aster-C; single dose, Dose = 10 µM)",STARD1 (FP) inhibition (STARD1),Kd (STARD5),IC50 (Aster-C),STARD5 (DSF) ΔTmmax (STARD5)
COc1ccc2c(c1)C(=O)CC[C@@H]1C[C@H](O)CC[C@]1(C)C(=O)N2 [Compound 11d],0.0281 °C,1.6%,5%,–,–,–,–,–,–
C[C@]12CC[C@@H](O)C[C@H]1CCC(=O)c1cc(C(F)(F)F)ccc1NC2=O [Compound 11e],0.115 °C,-1.6%,10%,–,–,–,–,–,–
C[C@]12CC[C@@H](O)C[C@H]1CCC(=O)c1cc(Cl)cc(F)c1NC2=O [Compound 11f],–,–,–,0.154 °C,-0.8%,-3.33%,–,–,–
Cc1cc(C)c2c(c1)NC(=O)[C@@]1(C)CC[C@@H](O)C[C@H]1CCC2=O [Compound 11g],0.141 °C,-0.8%,-8%,–,–,–,–,–,–
Cc1ccc2[nH]c3c(c(=O)c2c1)C[C@@H]1C[C@H](O)CC[C@]31C [Compound 12],0.169 °C,0%,5%,–,–,–,–,–,–
Cc1ccc2c(c1)[C@]1(O)CC[C@@H]3C[C@H](O)CC[C@]3(C)C1=N2 [Compound 14a],0.5 °C,-1%,17%,–,–,–,–,–,–
COc1ccc2c(c1)[C@]1(O)CC[C@@H]3C[C@H](O)CC[C@]3(C)C1=N2 [Compound 14b],0.049 °C,3.2%,10%,–,–,–,–,–,–
Cc1cc(C)c2c(c1)N=C1[C@@]2(O)CC[C@@H]2C[C@H](O)CC[C@]12C [Compound 14c],0.0425 °C,3.2%,10%,–,–,–,–,–,–
C[C@]12CC[C@@H]3C[C@H]1CC[C@@]21C(=Nc2ccccc21)O3 [Compound 15a],1.3 °C,-4%,18%,–,–,–,> 100 µM,> 80 µM,–
CC12CCC3CC1CCC21C(=Nc2ccc(Cl)cc21)O3 (stereo not drawn) [Compound 15c],0.56 °C,-4%,20%,–,–,–,–,> 80 µM,–
C[C@]12CC[C@@H]3C[C@H]1CC[C@@]21C(=Nc2ccc(F)cc21)O3 [Compound 15d],0.6 °C,-4%,17%,–,–,–,–,> 80 µM,–
Cc1ccc2c(c1)[C@@]13CC[C@@H]4C[C@@H](CC[C@@]41C)OC3=N2 [Compound 15e],0.8 °C,7%,45%,–,–,–,–,> 80 µM,–
COc1ccc2c(c1)[C@@]13CC[C@@H]4C[C@@H](CC[C@@]41C)OC3=N2 [Compound 15f],0.268 °C,10%,15%,–,–,–,–,> 80 µM,–
C[C@]12CC[C@@H]3C[C@H]1CC[C@@]21C(=Nc2ccc(C(F)(F)F)cc21)O3 [Compound 15g],0.9 °C,-0.8%,25%,–,–,–,–,> 80 µM,–
CC12CCC3CC1CCC21C(=Nc2c(Br)cc(C(F)(F)F)cc21)O3 (stereo not drawn) [Compound 15h],0.2 °C,0%,17%,–,–,–,–,> 80 µM,–
C[C@]12CC[C@@H]3C[C@H]1CC[C@@]21C(=Nc2c(F)cc(Cl)cc21)O3 [Compound 15i],0.109 °C,-1.6%,28%,–,–,–,–,> 80 µM,–
CC12CCC3CC1CCC21C(=Nc2ccc(NCc4ccccc4)cc21)O3 (stereo not drawn) [Compound 19b],2.2 °C,-2.4%,35%,–,–,–,19.3 µM,> 80 µM,5.3 °C
CCCCCNc1ccc2c(c1)[C@@]13CC[C@@H]4C[C@@H](CC[C@@]41C)OC3=N2 [Compound 19c],1.3 °C,1.6%,28%,–,–,–,20.9 µM,> 80 µM,4.8 °C
CCCCN(C)c1ccc2c(c1)[C@@]13CC[C@@H]4C[C@@H](CC[C@@]41C)OC3=N2 [Compound 19d],4.5 °C,-5%,33%,–,–,–,11.9 µM,> 80 µM,7.4 °C
CC(C)(C)OC(=O)N1CCN(c2ccc3c(c2)C24CCC5CC(CCC52C)OC4=N3)CC1 (stereo not drawn) [Compound 19e],0.7 °C,1.6%,25%,–,–,–,> 100 µM,> 80 µM,1.9 °C
